Laboratory results reported in ChEMBL document CHEMBL1139807, “Discovery of (-)-6-[2-[4-(3-fluorophenyl)-4-hydroxy-1-piperidinyl]-1-hydroxyethyl]-3,4-dihydro-2(1H)-quinolinone--a potent NR2B-selective N-methyl D-aspartate (NMDA) antagonist for the treatment of pain” (Bioorg Med Chem Lett, 2007).

Key:
[1] = target: Glutamate receptor ionotropic, NMDA 2B (Rattus norvegicus, UniProt P35439+Q00960); assay: Displacement of [3H]racemic CP-101606 from rat NR2B receptor in P2 membrane; format: cell membranes
Cytochrome P450 2D6 = Cytochrome P450 2D6 (Homo sapiens, UniProt P10635); assay: Displacement of [3H]bufuralol from CYP2D6; format: ADME
[2] = Ratio of Half life of compound in human liver microsome HHM0168 to half life in human liver microsome HHM0168 in presence of CYP2D6; format: ADME; settings: microsomes
[3] = target: Voltage-gated inwardly rectifying potassium channel KCNH2 (Homo sapiens, UniProt Q12809); assay: Displacement of [3H]bufuralol from hERG channel expressed in HEK293 cells
Rattus norvegicus = assay: Effect on haloperidol catalepsy in po dosed rat assessed as latency to paw withdrawal; format: functional; settings: read-out: MED
hERG (KCNH2) = hERG (KCNH2) (Homo sapiens, UniProt Q12809); assay: Blockade of hERG channel expressed in HEK293 cells by electrophysiological method; format: cell-based; settings: HEK293 cells expressing hERG channel
Sequence of hERG (KCNH2) (Q12809 whole entry): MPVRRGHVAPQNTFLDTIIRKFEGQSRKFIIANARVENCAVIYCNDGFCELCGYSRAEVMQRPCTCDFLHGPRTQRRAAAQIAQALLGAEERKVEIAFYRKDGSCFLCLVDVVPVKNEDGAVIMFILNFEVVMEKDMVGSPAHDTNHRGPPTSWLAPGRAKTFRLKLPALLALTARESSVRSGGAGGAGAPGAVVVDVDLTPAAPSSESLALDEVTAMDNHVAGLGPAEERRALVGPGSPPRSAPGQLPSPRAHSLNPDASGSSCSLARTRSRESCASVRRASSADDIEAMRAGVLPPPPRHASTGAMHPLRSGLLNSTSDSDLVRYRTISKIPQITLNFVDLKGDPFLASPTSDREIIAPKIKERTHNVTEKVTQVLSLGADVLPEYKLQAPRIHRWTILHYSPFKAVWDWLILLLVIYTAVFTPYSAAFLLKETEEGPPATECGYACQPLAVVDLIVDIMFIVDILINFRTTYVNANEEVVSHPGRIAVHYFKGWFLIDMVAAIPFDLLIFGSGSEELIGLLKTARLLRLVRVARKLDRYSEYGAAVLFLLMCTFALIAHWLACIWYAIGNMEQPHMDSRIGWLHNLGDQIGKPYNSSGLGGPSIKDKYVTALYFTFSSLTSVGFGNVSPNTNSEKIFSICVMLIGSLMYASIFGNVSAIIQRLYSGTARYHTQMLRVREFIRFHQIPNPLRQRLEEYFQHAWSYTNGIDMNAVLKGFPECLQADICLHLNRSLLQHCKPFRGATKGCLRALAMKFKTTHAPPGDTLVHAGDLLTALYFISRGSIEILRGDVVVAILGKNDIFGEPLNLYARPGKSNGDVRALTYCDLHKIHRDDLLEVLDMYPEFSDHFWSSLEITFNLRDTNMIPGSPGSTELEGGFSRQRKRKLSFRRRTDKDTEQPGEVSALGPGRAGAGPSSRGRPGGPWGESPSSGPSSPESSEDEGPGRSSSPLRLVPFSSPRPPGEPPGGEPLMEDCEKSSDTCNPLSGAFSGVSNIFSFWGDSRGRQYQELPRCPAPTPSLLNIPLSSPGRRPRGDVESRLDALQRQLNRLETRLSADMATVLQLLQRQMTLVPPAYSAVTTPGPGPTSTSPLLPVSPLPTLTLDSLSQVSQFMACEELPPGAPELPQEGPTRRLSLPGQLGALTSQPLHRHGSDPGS

Sequence of Voltage-gated inwardly rectifying potassium channel KCNH2 (Q12809 whole entry): as above
Sequence of Glutamate receptor ionotropic, NMDA 2B (Q00960 whole entry, one chain of several): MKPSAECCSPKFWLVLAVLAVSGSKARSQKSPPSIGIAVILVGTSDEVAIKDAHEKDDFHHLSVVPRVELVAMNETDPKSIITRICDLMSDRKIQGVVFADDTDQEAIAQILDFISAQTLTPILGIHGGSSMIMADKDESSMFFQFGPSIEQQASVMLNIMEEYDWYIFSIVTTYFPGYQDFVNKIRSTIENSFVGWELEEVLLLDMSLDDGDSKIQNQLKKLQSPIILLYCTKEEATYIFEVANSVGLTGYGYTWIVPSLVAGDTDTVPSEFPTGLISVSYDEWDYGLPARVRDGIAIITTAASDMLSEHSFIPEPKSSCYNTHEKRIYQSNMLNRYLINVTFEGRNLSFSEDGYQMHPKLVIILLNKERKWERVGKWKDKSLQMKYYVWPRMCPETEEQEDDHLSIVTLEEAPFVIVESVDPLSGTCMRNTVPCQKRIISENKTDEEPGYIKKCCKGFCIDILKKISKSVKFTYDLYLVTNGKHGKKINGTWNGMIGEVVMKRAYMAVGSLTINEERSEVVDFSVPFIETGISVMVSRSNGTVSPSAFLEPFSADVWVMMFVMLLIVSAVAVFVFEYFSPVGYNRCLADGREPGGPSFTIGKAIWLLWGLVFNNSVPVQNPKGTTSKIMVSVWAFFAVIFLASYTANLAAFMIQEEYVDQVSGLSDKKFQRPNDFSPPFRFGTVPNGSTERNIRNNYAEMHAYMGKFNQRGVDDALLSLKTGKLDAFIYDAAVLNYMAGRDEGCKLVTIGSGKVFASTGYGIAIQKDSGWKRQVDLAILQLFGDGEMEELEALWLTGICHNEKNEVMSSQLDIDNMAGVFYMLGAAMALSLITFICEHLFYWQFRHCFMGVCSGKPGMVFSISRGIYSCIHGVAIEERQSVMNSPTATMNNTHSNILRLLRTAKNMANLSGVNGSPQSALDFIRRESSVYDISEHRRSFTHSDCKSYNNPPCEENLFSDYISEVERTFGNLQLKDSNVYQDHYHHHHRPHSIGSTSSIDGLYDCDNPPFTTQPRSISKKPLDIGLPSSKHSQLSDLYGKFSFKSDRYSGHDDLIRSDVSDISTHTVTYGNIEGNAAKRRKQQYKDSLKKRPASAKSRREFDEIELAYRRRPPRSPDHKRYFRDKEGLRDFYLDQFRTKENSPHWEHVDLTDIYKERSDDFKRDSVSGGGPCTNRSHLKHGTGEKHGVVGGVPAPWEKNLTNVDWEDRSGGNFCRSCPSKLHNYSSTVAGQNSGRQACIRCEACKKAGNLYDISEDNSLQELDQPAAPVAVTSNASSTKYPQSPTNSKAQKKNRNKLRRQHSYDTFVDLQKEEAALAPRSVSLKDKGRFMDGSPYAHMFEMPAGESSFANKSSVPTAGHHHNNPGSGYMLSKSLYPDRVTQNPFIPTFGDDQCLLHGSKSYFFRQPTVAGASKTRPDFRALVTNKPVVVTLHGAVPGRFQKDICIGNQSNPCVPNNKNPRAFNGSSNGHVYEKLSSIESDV
Sequence of Cytochrome P450 2D6 (P10635 whole entry): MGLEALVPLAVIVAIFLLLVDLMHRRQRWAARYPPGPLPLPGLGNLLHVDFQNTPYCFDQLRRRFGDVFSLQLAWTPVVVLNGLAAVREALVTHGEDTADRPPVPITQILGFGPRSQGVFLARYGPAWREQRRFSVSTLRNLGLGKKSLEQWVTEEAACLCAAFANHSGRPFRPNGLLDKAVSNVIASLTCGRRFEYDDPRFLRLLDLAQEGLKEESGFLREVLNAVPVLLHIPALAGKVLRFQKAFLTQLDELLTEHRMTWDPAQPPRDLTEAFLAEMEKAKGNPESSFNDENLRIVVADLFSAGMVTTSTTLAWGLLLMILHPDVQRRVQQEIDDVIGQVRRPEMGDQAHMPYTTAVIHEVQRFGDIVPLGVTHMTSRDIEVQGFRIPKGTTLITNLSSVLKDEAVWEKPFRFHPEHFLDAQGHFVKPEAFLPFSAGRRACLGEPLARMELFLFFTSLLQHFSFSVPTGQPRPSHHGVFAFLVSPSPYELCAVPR

SMILES | IC50 [1] [nM] | IC50 (Cytochrome P450 2D6) [nM] | Ratio [2] | IC50 [3] [nM] | minimal effective dose (Rattus norvegicus) [mg/kg] | IC20 (hERG (KCNH2)) [nM]
CC(C(O)c1ccc(O)c(-c2ccccc2)c1)N1CCC(O)(c2ccc(F)cc2)CC1 (racemic) | 570 | 8400 |  |  |  | 
CC(C(O)c1ccc2[nH]c(=O)oc2c1)N1CCC(O)(c2ccc(F)cc2)CC1 (racemic) | 41 | 11000 | 1 | 2600 |  | 
CC(C(O)c1ccc2c(c1)OCC(=O)N2)N1CCC(O)(c2ccc(F)cc2)CC1 (racemic) | 8.7 | > 30000 | 1 | 1600 |  | 
CC(C(O)c1ccc2c(c1)CNC(=O)N2)N1CCC(O)(c2ccc(F)cc2)CC1 (racemic) | 9.1 | > 30000 | 1 | 7400 |  | 
CC(C(O)c1ccc2c(c1)CN(C)C(=O)N2)N1CCC(O)(c2ccc(F)cc2)CC1 (racemic) | 14 | > 30000 | 1 | 3100 |  | 
CC(C(O)c1ccc2c(c1)CCC(=O)N2)N1CCC(O)(c2ccc3c(c2)COCC3)CC1 (racemic) | 15 |  |  | 16000 | > 30 | 
COc1cccc(C2(O)CCN(C(C)C(O)c3ccc4c(c3)CCC(=O)N4)CC2)c1 (racemic) | 8.3 |  |  |  | 30 | 
O=C1CCc2cc(C(O)CN3CCC(O)(c4cccc(F)c4)CC3)ccc2N1 (racemic) | 4.5 |  |  | 13000 |  | 
Cc1cc(C(O)C(C)N2CCC(O)(c3ccc(F)cc3)CC2)ccc1O (racemic) |  | < 300 |  |  |  | 
Cc1cc(O)ccc1C(O)C(C)N1CCC(O)(c2ccc(F)cc2)CC1 (racemic) | 16 | 3900 | > 4.5 |  |  | 
CC(C(O)c1ccc(O)c(C(C)(C)C)c1)N1CCC(O)(c2ccc(F)cc2)CC1 (racemic) | > 5000 |  |  |  |  | 
Cc1ccc(C2(O)CCN(C(C)C(O)c3ccc4c(c3)CCC(=O)N4)CC2)cc1 (racemic) | 9.1 |  |  |  |  | 
CC(C(O)c1ccc2c(c1)CCC(=O)N2)N1CCC(O)(c2cccc(COc3ccccc3)c2)CC1 (racemic) | 6.3 |  |  |  |  | 
CC(C(O)c1ccc2c(c1)CCC(=O)N2)N1CCC(O)(c2ccc(Cl)cc2)CC1 (racemic) | 6.6 |  |  |  | 10 | 
CC(C(O)c1ccc(O)c(Cl)c1)N1CCC(O)(c2ccc(F)cc2)CC1 (racemic) | 5.6 | 3500 | 1.6 |  |  | 
CC(C(O)c1ccc2c(c1)COC(=O)N2)N1CCC(O)(c2ccc(F)cc2)CC1 (racemic) | 18 | > 30000 | 1 | 2400 |  | 
CC(C(O)c1ccc2c(c1)CCC(=O)N2)N1CCC(O)(c2ccc(F)cc2)CC1 (racemic) | 11 | > 30000 |  |  |  | 
CC(C(O)c1ccc2c(c1)CCC(=O)N2)N1CCC(O)(c2cccc(F)c2)CC1 (racemic) | 10 |  |  |  | 10 | 
O=C1CCc2cc(C(O)CN3CCC(O)(c4cccc(F)c4)CC3)ccc2N1 (single isomer, unassigned; (+)) | 6.8 |  |  | 9800 |  | 
O=C1CCc2cc(C(O)CN3CCC(O)(c4cccc(F)c4)CC3)ccc2N1 (single isomer, unassigned; (-)) | 5 |  |  | 21000 |  | 1100
C[C@@H]([C@@H](O)c1ccc(O)cc1)N1CCC(O)(c2ccccc2)CC1 [TRAXOPRODIL] |  |  |  | 10000 |  | 150
